Assay results from patent US20070088023A1, “Method of administration for 5-(2-chlorophenyl)-1,2-dihydro-7-fluoro-8-methoxy-3-methyl-oyrazolo[1,4]benzodiazepine” (priority 2005, published 2007).
Like-named read-outs stand apart in the source and are kept apart here.

Experiment: pre-clinical good laboratory practices toxicology, maximum tolerated dose
Design: species or system rats
Conditions: rat, in vivo
Procedure: The starting dose is based on pre-clinical good laboratory practices toxicological results, according to the accepted standards. […] Thus, the maximum tolerated dose equivalent for this trial will be 1/10th of the HED or 1.8 rounded down to 1.5 mg/m^2/day with dose escalation in 1.5 mg/m^2 increments to 30 mg/m^2 or until dose limiting toxicity(s)(DLT) occur.

Which MTD (rat MTD 3 mg/kg/day times 6, read-out: HED (human equivalent dose) of the rat maximum tolerated dose) does the source give for COc1cc2c(cc1F)C(c1ccccc1Cl)=Nc1c(n[nH]c1C)N2 [compound of Formula I, 5-(2-chlorophenyl)-1,2-dihydro-7-fluoro-8-methoxy-3-methyl-pyrazolo[3,4-b][1,4]benzodiazepine] here?
The MTD was 18 mg/kg/day.

And the MTD (rats, pre-clinical GLP toxicology, read-out: maximum tolerated dose in rats)?
The MTD was 3 mg/kg/day.
